Assays:
[1] = target: SRSF protein kinase 3 (Homo sapiens) (UniProt Q9UPE1); settings: Compound concentration 1000.0 nM
[2] = target: G protein-coupled receptor kinase 3 (Homo sapiens) (UniProt P35626); settings: Compound concentration 1000.0 nM
[3] = target: Mitogen-activated protein kinase kinase kinase kinase 5 (Homo sapiens) (UniProt Q9Y4K4); settings: Compound concentration 1000.0 nM
[4] = target: Serine/threonine-protein kinase mTOR (Homo sapiens) (UniProt P42345); settings: Compound concentration 1000.0 nM
[5] = target: Serine/threonine-protein kinase VRK2 (Homo sapiens) (UniProt Q86Y07); settings: Compound concentration 1000.0 nM
[6] = target: Ephrin type-A receptor 7 (Homo sapiens) (UniProt Q15375); settings: Compound concentration 1000.0 nM
[7] = target: Alpha-2A adrenergic receptor (Homo sapiens) (UniProt P08913); settings: Compound concentration 10.0 uM
[8] = target: TGF-beta receptor type-2 (Homo sapiens) (UniProt P37173); settings: Compound concentration 1000.0 nM
[9] = target: Tyrosine-protein kinase Fyn (Homo sapiens) (UniProt P06241); settings: Compound concentration 1000.0 nM
[10] = target: Serine/threonine-protein kinase RIO2 (Homo sapiens) (UniProt Q9BVS4); settings: Compound concentration 1000.0 nM
[11] = target: Serine/threonine-protein kinase MRCK alpha (Homo sapiens) (UniProt Q5VT25); settings: Compound concentration 1000.0 nM
[12] = target: Phosphatidylinositol 4,5-bisphosphate 3-kinase catalytic subunit alpha isoform (Homo sapiens) (UniProt P42336); settings: Compound concentration 1000.0 nM
[13] = target: 5-hydroxytryptamine receptor 1D (Homo sapiens) (UniProt P28221); settings: Compound concentration 10.0 uM
[14] = test system: Receptor-type tyrosine-protein kinase FLT3 (Homo sapiens), P36888 [K663Q]; settings: Compound concentration 1000.0 nM
[15] = target: Glycogen synthase kinase-3 beta (Homo sapiens) (UniProt P49841); settings: Compound concentration 1000.0 nM
[16] = test system: ALK tyrosine kinase receptor (Homo sapiens), Q9UM73 [C1156Y]; settings: Compound concentration 1000.0 nM
[17] = test system: Receptor-type tyrosine-protein kinase FLT3 (Homo sapiens), P36888 [R834Q]; settings: Compound concentration 1000.0 nM
[18] = target: Hepatocyte growth factor receptor (Homo sapiens) (UniProt P08581); settings: Compound concentration 1000.0 nM
[19] = target: Calcium/calmodulin-dependent protein kinase type 1 (Homo sapiens) (UniProt Q14012); settings: Compound concentration 1000.0 nM
[20] = target: Serine/threonine-protein kinase MRCK beta (Homo sapiens) (UniProt Q9Y5S2); settings: Compound concentration 1000.0 nM
[21] = target: Serine/threonine-protein kinase 16 (Homo sapiens) (UniProt O75716); settings: Compound concentration 1000.0 nM
[22] = target: Tyrosine-protein kinase ABL1 (Homo sapiens) (UniProt P00519); settings: Compound concentration 1000.0 nM
[23] = test system: Receptor-type tyrosine-protein kinase FLT3 (Homo sapiens), P36888 [UNDEFINED MUTATION]; settings: Compound concentration 1000.0 nM
[24] = target: Cyclin-dependent kinase 4 (Homo sapiens) (UniProt P11802); settings: Compound concentration 1000.0 nM
[25] = target: Angiopoietin-1 receptor (Homo sapiens) (UniProt Q02763); settings: Compound concentration 1000.0 nM
[26] = target: Fibroblast growth factor receptor 3 (Homo sapiens) (UniProt P22607); settings: Compound concentration 1000.0 nM
[27] = target: Calcium/calmodulin-dependent protein kinase type II subunit gamma (Homo sapiens) (UniProt Q13555); settings: Compound concentration 1000.0 nM
[28] = target: Serine/threonine-protein kinase Nek6 (Homo sapiens) (UniProt Q9HC98); settings: Compound concentration 1000.0 nM
[29] = target: Inhibitor of nuclear factor kappa-B kinase subunit alpha (Homo sapiens) (UniProt O15111); settings: Compound concentration 1000.0 nM
[30] = target: Mitogen-activated protein kinase 8 (Homo sapiens) (UniProt P45983); settings: Compound concentration 1000.0 nM
[31] = target: Mitogen-activated protein kinase kinase kinase 5 (Homo sapiens) (UniProt Q99683); settings: Compound concentration 1000.0 nM
[32] = target: Myosin light chain kinase (Homo sapiens) (UniProt Q32MK0); settings: Compound concentration 1000.0 nM
[33] = target: Macrophage-stimulating protein receptor (Homo sapiens) (UniProt Q04912); settings: Compound concentration 1000.0 nM
[34] = target: Citron Rho-interacting kinase (Homo sapiens) (UniProt O14578); settings: Compound concentration 1000.0 nM
[35] = target: Serine/threonine-protein kinase OSR1 (Homo sapiens) (UniProt O95747); settings: Compound concentration 1000.0 nM
[36] = target: Calcium/calmodulin-dependent protein kinase type IV (Homo sapiens) (UniProt Q16566); settings: Compound concentration 1000.0 nM
[37] = target: Serine/threonine-protein kinase PLK3 (Homo sapiens) (UniProt Q9H4B4); settings: Compound concentration 1000.0 nM
[38] = target: 1-phosphatidylinositol 3-phosphate 5-kinase (Homo sapiens) (UniProt Q9Y2I7); settings: Compound concentration 1000.0 nM
[39] = target: Serine/threonine-protein kinase ULK2 (Homo sapiens) (UniProt Q8IYT8); settings: Compound concentration 1000.0 nM
[40] = target: Tyrosine-protein kinase Fes/Fps (Homo sapiens) (UniProt P07332); settings: Compound concentration 1000.0 nM
[41] = target: Serine/threonine-protein kinase Chk2 (Homo sapiens) (UniProt O96017); settings: Compound concentration 1000.0 nM
[42] = target: Dual specificity protein kinase CLK4 (Homo sapiens) (UniProt Q9HAZ1); settings: Compound concentration 1000.0 nM
[43] = target: Serine/threonine-protein kinase Sgk2 (Homo sapiens) (UniProt Q9HBY8); settings: Compound concentration 1000.0 nM
[44] = target: Epithelial discoidin domain-containing receptor 1 (Homo sapiens) (UniProt Q08345); settings: Compound concentration 1000.0 nM
[45] = target: Leucine-rich repeat serine/threonine-protein kinase 2 (Homo sapiens) (UniProt Q5S007); settings: Compound concentration 1000.0 nM

Macrophage-stimulating protein receptor (Homo sapiens), sequence (Q04912 25-304 limits assumed): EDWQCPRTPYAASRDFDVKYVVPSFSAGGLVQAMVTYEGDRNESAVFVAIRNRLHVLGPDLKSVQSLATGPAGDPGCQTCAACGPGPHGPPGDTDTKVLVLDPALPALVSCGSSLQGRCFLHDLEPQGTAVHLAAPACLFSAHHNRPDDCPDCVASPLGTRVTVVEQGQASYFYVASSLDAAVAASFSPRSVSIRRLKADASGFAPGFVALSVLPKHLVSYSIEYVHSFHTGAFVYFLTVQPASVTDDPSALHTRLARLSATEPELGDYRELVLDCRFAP
Macrophage-stimulating protein receptor (Homo sapiens), sequence (Q04912 310-1400 limits assumed): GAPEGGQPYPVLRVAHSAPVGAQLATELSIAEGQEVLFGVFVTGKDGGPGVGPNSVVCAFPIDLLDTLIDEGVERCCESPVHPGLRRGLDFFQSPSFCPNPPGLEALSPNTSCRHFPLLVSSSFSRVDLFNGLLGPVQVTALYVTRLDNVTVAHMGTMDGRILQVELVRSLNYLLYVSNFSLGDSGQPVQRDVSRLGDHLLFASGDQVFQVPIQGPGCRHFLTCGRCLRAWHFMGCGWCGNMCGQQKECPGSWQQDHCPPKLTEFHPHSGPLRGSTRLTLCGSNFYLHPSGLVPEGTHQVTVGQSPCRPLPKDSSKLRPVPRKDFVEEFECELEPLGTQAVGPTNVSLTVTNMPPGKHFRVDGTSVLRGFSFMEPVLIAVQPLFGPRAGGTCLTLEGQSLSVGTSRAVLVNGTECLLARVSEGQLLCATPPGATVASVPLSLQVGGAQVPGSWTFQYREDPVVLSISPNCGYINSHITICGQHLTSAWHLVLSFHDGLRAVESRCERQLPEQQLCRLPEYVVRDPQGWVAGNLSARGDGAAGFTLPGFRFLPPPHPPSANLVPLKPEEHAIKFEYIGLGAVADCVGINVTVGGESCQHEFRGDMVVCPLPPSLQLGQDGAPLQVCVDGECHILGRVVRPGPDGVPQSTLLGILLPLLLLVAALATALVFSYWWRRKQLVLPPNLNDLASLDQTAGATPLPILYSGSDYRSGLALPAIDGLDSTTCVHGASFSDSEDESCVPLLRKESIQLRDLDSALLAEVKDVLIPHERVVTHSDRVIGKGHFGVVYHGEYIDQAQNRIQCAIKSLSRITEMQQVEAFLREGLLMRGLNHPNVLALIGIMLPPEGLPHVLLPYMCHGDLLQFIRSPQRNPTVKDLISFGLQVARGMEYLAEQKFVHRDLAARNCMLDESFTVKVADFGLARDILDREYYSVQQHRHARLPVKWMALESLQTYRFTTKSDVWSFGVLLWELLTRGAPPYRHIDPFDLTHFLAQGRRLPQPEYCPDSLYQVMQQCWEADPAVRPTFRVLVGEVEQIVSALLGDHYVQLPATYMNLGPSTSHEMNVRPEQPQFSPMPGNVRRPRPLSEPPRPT
Cyclin-dependent kinase 4 (Homo sapiens), sequence (P11802 whole entry): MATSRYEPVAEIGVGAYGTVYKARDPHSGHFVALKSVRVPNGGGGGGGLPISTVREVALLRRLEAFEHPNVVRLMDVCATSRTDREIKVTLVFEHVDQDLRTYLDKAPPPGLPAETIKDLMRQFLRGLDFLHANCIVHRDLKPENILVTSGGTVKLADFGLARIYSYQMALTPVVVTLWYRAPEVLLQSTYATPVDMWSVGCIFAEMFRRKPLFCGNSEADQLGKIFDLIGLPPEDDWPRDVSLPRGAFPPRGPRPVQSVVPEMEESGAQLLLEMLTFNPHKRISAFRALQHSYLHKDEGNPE
Glycogen synthase kinase-3 beta (Homo sapiens), sequence (P49841 whole entry, looked up): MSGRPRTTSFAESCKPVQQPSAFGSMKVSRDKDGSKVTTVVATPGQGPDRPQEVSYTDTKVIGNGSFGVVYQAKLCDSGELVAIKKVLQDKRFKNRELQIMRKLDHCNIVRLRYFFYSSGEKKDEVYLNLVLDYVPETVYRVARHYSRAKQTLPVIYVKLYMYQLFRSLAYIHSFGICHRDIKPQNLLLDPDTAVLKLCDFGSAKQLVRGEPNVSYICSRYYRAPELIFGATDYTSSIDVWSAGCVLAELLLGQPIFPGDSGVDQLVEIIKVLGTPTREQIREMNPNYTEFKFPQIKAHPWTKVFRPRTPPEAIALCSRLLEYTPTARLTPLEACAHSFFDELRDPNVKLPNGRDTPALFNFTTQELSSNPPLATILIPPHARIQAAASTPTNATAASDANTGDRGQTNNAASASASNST
Myosin light chain kinase (Homo sapiens), sequence (Q32MK0 whole entry): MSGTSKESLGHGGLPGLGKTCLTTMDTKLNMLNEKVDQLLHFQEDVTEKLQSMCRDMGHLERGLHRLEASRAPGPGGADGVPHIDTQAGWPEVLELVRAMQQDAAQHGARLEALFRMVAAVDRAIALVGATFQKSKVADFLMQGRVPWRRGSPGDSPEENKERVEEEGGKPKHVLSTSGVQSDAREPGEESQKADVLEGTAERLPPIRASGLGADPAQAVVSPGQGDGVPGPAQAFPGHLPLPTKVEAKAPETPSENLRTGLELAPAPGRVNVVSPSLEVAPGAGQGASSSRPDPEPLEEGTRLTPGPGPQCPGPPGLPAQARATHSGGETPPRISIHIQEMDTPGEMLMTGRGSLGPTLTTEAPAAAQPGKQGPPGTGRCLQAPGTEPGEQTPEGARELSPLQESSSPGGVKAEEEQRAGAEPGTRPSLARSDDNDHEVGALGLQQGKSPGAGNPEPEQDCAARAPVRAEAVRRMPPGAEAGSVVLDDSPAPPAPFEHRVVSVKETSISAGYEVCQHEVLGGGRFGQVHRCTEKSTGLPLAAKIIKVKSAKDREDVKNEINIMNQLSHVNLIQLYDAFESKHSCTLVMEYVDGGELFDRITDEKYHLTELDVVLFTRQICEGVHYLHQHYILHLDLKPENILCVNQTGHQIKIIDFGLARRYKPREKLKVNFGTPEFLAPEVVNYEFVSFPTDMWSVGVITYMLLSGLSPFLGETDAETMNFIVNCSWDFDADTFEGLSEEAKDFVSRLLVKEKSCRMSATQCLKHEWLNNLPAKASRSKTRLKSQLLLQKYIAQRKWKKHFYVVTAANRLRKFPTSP
Serine/threonine-protein kinase Chk2 (Homo sapiens), sequence (O96017 whole entry): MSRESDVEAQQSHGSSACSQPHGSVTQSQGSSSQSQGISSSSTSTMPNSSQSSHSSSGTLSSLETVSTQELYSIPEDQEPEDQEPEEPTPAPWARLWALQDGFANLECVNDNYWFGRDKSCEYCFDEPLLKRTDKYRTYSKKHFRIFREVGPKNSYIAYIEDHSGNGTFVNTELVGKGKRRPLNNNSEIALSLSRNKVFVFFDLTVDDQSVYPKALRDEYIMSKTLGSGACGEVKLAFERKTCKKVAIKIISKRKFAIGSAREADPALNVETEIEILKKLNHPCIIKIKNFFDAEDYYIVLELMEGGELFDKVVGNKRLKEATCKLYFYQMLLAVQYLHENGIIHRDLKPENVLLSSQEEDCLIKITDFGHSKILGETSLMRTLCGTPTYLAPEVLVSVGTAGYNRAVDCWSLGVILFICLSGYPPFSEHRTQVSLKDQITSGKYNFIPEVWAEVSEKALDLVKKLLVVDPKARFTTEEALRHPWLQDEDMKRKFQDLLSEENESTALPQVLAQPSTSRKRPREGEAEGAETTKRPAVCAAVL
Inhibitor of nuclear factor kappa-B kinase subunit alpha (Homo sapiens), sequence (O15111 whole entry): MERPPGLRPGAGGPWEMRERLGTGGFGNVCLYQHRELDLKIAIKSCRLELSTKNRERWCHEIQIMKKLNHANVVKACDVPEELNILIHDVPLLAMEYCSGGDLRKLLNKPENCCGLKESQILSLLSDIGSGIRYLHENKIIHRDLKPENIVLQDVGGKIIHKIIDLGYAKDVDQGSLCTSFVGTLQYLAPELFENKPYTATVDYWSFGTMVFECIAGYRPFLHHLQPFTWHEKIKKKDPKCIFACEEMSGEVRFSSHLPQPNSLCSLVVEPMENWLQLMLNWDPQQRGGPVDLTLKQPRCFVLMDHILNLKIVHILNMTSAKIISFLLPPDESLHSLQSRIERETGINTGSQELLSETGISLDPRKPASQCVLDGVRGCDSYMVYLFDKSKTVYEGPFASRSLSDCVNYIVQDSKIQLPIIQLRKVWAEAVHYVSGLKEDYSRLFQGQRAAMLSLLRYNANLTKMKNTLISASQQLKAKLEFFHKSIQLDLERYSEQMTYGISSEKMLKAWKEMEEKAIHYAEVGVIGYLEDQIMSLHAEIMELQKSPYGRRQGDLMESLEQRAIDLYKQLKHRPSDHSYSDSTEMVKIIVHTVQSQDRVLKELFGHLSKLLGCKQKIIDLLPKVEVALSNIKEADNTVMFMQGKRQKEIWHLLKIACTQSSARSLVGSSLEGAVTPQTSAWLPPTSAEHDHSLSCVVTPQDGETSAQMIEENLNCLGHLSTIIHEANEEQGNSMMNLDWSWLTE
Serine/threonine-protein kinase OSR1 (Homo sapiens), sequence (O95747 2-527 limits assumed): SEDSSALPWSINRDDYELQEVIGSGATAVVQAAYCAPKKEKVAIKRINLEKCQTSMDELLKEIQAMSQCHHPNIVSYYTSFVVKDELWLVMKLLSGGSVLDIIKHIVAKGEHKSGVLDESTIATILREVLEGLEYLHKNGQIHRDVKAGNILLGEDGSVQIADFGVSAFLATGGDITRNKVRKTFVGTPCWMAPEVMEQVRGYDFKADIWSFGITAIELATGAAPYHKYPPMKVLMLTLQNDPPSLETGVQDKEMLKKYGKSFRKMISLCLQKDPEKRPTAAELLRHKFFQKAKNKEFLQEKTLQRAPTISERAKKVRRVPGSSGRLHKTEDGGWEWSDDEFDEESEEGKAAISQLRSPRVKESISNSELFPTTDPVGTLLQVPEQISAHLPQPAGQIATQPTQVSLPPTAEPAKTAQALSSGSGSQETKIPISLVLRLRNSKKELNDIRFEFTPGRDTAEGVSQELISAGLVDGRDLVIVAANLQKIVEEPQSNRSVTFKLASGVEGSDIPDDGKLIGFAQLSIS

CCC(=N\O)/C(C)=C/c1ccc(F)cc1 [A-079]
residual activity [1]: 91% | residual activity [2]: 92% | residual activity [3]: 80% | residual activity [4]: 100% | residual activity [5]: 74% | residual activity [6]: 86% | inhibition [7]: 5.31% | residual activity [8]: 74% | residual activity [9]: 100% | residual activity [10]: 86% | residual activity [11]: 100% | residual activity [12]: 100% | inhibition [13]: 13.9% | residual activity [14]: 100% | residual activity [15]: 79% | residual activity [16]: 77% | residual activity [17]: 80% | residual activity [18]: 88% | residual activity [19]: 100% | residual activity [20]: 100% | residual activity [21]: 97% | residual activity [22]: 66% | residual activity [23]: 76% | residual activity [24]: 74% | residual activity [25]: 89% | residual activity [26]: 91% | residual activity [27]: 100% | residual activity [28]: 87% | residual activity [29]: 67% | residual activity [30]: 86% | residual activity [31]: 93% | residual activity [32]: 86% | residual activity [33]: 100% | residual activity [34]: 70% | residual activity [35]: 80% | residual activity [36]: 69% | residual activity [37]: 86% | residual activity [38]: 92% | residual activity [39]: 46% | residual activity [40]: 73% | residual activity [41]: 85% | residual activity [42]: 100% | residual activity [43]: 78% | residual activity [44]: 89% | residual activity [45]: 90%

CCC(=N\O)/C(C)=C/c1ccc(F)c(C)c1 [A-226]
residual activity [1]: 100% | residual activity [2]: 100% | residual activity [3]: 100% | residual activity [4]: 100% | residual activity [5]: 100% | residual activity [6]: 92% | inhibition [7]: 2.82% | residual activity [8]: 97% | residual activity [9]: 72% | residual activity [10]: 73% | residual activity [11]: 100% | residual activity [12]: 100% | inhibition [13]: 4.54% | residual activity [14]: 100% | residual activity [15]: 100% | residual activity [16]: 100% | residual activity [17]: 100% | residual activity [18]: 100% | residual activity [19]: 86% | residual activity [20]: 69% | residual activity [21]: 84% | residual activity [22]: 100% | residual activity [23]: 97% | residual activity [24]: 100% | residual activity [25]: 85% | residual activity [26]: 96% | residual activity [27]: 90% | residual activity [28]: 99% | residual activity [29]: 95% | residual activity [30]: 100% | residual activity [31]: 100% | residual activity [32]: 100% | residual activity [33]: 100% | residual activity [34]: 70% | residual activity [35]: 100% | residual activity [36]: 87% | residual activity [37]: 100% | residual activity [38]: 100% | residual activity [39]: 100% | residual activity [40]: 93% | residual activity [41]: 90% | residual activity [42]: 97% | residual activity [43]: 100% | residual activity [44]: 91% | residual activity [45]: 100%

— ChEMBL document CHEMBL4507256 (2021)
